{"source": "patent US9956200B2", "about": "“Compositions comprising dihydroquercetin for use in methods for treating the effects associated with skin inflammatory disorders” (BIONOOX SUISSE SA, priority 2014, dated 2018)", "type_in_all_cases": "cell-based", "key": {"[1]": {"system": "neutrophils triggered by fMLP", "test": "ROS production by luminol chemiluminescence, neutrophils triggered by fMLP", "settings": "fMLP 10^−6 M; DHQ 1, 10 or 100 μM, concentration per sample not given", "protocol": "Neutrophils (5×10^5) are suspended in 0.5 mL of Hanks balanced salt solution containing 10 μM luminol at 37° C. The cells are then stimulated with 10^−6M fMLF (N-formylmethionyl-leucyl-phenylalanine). Chemiluminescence is recorded with a luminometer (Berthold-Biolumat LB937). Similarly, neutrophils were triggered by fMLP (10^−6 M) in the presence of different concentrations of DHQ (0, 1, 10 and 100 μM) at 37° C. in Hanks buffer containing 10 μM luminol and chemiluminescence was measured by a chemiluminometer. Total chemiluminescence counts during 22.21 min. (integrals) corresponding to total ROS production were determined."}, "[2]": {"system": "polymorphonuclear neutrophils", "test": "Oxygen consumption of polymorphonuclear neutrophils triggered by PMA and fMLP", "settings": "data not shown"}, "[3]": {"system": "human mast cells", "test": "Mast cell degranulation (beta-hexosaminidase release) induced by IgE then anti-IgE", "settings": "versus kinase inhibitors and chromoglycate (reference molecule)", "excerpt": "Pure populations of human mast cells (HMC) are obtained by long-term culture of human normal hematopoietic progenitors (CD34^+ cells) in the continuous presence of Stem Cell Factor (SCF). Sources of these CD34^+ cells are mainly bone marrow, cord blood or peripheral blood. Usually, mononuclear cells from bone marrow and cord blood contain 0.5-1% of CD34^+ cells, whereas peripheral blood contains less than 0.1% of CD34^+ cells. Hematopoietic progenitor cells can be rapidly and efficiently enriched to a purity of about 85-98% using positive selection of magnetically labeled CD34^+ cells. Hematopoietic progenitor cells are then magnetically labeled using MACS CD34 MicroBeads. The magnetically labeled cells are enriched on positive selection columns in the magnetic field. Mononuclear cells from peripheral blood (PBMC), cord blood, or bone marrow may otherwise be obtained by density gradient centrifugation over Ficoll Paque®. Fractionation methods for producing mast cells are described in the art (see for instance Arock et al., 2008, Methods in Molecular biology 415: 241-254). Mast cell degranulation was induced by sequential treatment of mast cell by IgE, then by anti-IgE antibodies. Degranulation was subsequently measured by evaluating the release of beta-hexosaminidase, 1 h after IgE stimulation (see FIG. 4)."}}, "note": "“And” between values parts separate entries of the source, which are not always exact repeats. Equal values may be shown once.", "data": [{"smiles": "O=C1c2c(O)cc(O)cc2OC(c2ccc(O)c(O)c2)C1O", "note": "(stereo not shown) [DHQ]", "values": [{"measurement": "T.half (fall)", "setting": "[1]", "result": "3.78 and 3.55"}, {"measurement": "T.half (rise)", "setting": "[1]", "result": 1.55}, {"measurement": "effect on oxygen consumption of polymorphonuclear neutrophils", "setting": "[2]", "result": "strongly inhibits"}, {"measurement": "inhibitory activity on mast cell degranulation compared with reference molecules", "setting": "[3]", "result": "superior to kinase inhibitors and chromoglycate"}]}]}
